BindingDB's records for doi:10.1073/pnas.90.21.10365 (Merck Research Laboratories, 1993)

Target: T1, Adenosine receptor A3 (Homo sapiens, UniProt P0DMS8)
T1 sequence (P0DMS8 whole entry): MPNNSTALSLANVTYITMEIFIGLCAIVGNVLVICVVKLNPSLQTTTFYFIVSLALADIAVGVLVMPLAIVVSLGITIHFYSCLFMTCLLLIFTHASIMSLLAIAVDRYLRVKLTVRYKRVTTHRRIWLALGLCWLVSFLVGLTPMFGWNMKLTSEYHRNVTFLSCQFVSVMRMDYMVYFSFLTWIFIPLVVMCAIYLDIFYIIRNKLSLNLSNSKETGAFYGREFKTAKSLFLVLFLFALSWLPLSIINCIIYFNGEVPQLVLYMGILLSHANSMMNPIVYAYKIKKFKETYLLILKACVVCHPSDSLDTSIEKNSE

Molecule Nc1ccc(CNc2ncnc3c2ncn3[C@@H]2O[C@H](CO)[C@@H](O)[C@H]2O)cc1I [IABA] has a Ki of 10 nM.
